In patent publication US9120833B2, “Polyfluoroalkylphosphonic acid ester and process for producing the same” (Unimatec Co., Ltd., priority 2009, dated 2015):

Details: 3 wt. % in base oil CnF2n+1(CF2CF2CF2O)mCnF2n+1 (viscosity at 40° C.: 210 mm^2/s), stirred under heating, stored at 25° C. for 24 hours
Procedure: The phosphonic acid ester (3 wt. %) obtained in Example 1 or 7 was added to a base oil of the formula: CnF2n+1(CF2CF2CF2O)mCnF2n+1 (viscosity at 40° C.: 210 mm^2/s), and the mixture was sufficiently stirred under heating. After the mixture was stored at 25° C. for 24 hours, the solubility of the phosphonic acid ester in the base oil was visually observed.

CCOP(=O)(CCC(F)(F)C(F)(F)C(F)(F)C(F)(F)C(F)(F)CC(F)(F)C(F)(F)C(F)(F)C(F)(F)F)OCC [Example 1, CF3(CF2)3(CH2CF2)(CF2CF2)2(CH2CH2)P(O)(OCH2CH3)2]
solubility of the phosphonic acid ester in the base oil (visually observed): dissolved into an almost transparent solution
